From publication PMC7376644 (Pharmacology Research & Perspectives, 2020)
Values joined by “and” are separate entries in the source; they are usually repeats but may differ in a detail not shown here. Equal values may be shown once. Read-outs that look alike come from different tables or passages of the source.

Experiments:
[1] = Simcyp prediction of total hepatic clearance; design: species or system human
Description: The clearance of the incubation mixture was expressed as μL/min/pmol for rCYP.
(§1) The well‐stirred model was used to estimate the hepatic clearance (CLH) due to metabolism.

[2] = PZQ-ketoconazole DDI pharmacokinetic study in healthy volunteers; assay type: in vivo, human; details: for AUC(0-inf) / AUC / CL/F / k el / half-life / Tmax / Vd/F: male, human, plasma
Description: Plasma samples were obtained from the AiBST biobank. […] Each participant served as their own control. Each participant provided written informed consent to take part in the study and the study was carried out according to Helsinki Declaration of 1975, as revised in 2008. The study was approved by the Medical Research Council of Zimbabwe (MRCZ) and the Medicines Controls Authority of Zimbabwe (MCAZ). […] The samples were vortexed for 30 seconds and left under gentle agitation for 25 minutes. […] From the supernatant, 20 μL was injected onto the chiral HPLC system for analysis. […] Detection was done using a UV diode array detector at 210 nm. […] The data were gathered and processed using Agilent OpenLab CDS for Chemstation software version 1.9. Linear calibration curves were plotted as concentration vs peak area ratio for analyte to IS with no weighting. […] The pharmacokinetic (PK) analysis was performed using the WinNonlin program, version 8.2 (Pharsight Corp). […] A non-compartmental approach was used for curve plotting and parameter calculation. The area under the curve (AUC) from time 0 to the last sampling time point (AUCt) was computed using the log-linear trapezoidal rule. The linear trapezoidal rule was used for the ascending part of the PK curve, while the log trapezoidal rule was used for the descending part of the graph. The AUC extrapolated to infinite time was calculated as AUC∞ = AUCt + Ct/K el where Ct is the concentration of the last sample taken and K el is the terminal elimination rate constant. The terminal elimination rate constant K el was determined by least squares regression analysis in the terminal phase of the semi log concentration-time curve. […] Statistical analysis was performed using the GraFit software (version 3.0, Erithacus Software Limited). […] Analysis of variance (ANOVA) was performed on the AUC and C max after transformation of the data to their natural logarithmic (ln) values.

[3] = cited from earlier work
CYP1A2 = target: T1, CYP1A2 (Homo sapiens, UniProt P05177); assay: Enzyme kinetics of hydroxylated metabolites formation; assay type: in vitro ADME; design: purchased CYPEX CYP001; host or cells: Escherichia coli; details: CYP1A2, formation of cis‐4‐OH‐PZQ
T1 sequence (P05177 1-516): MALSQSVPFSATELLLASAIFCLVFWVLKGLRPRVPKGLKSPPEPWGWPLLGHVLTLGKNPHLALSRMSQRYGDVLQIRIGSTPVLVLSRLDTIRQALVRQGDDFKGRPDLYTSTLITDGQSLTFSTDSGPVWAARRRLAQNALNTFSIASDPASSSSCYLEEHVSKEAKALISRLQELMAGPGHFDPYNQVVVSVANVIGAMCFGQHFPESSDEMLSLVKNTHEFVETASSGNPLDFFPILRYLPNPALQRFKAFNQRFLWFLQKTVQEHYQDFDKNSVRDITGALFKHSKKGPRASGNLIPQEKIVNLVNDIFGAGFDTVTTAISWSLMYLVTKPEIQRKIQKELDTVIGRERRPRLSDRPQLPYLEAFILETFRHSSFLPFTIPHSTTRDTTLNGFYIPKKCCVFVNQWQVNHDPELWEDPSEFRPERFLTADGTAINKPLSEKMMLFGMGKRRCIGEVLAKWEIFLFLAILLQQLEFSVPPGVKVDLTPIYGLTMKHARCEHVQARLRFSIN
Description: (§2) The reactions were carried out in duplicate at each time point. Incubation conditions used for the determination of K M and V max were optimized for linearity with respect to time and protein concentrations. […] Metabolites were analyzed by LC‐MS/MS as described below. The K M and V max values of each marker substrate were determined using nonlinear least squares regression analysis in GraFit software (version 3.0, Erithacus Software Limited) and SigmaPlot Enzyme Kinetics Module for Windows 7.0 (SPSS, Inc).
as §1

CYP2C19 = CYP2C19 (Homo sapiens, UniProt P33261); assay: as above; assay type: in vitro ADME; design: purchased CYPEX CYP008; host or cells: Escherichia coli; details: CYP2C19, formation of cis‐4‐OH‐PZQ
Description: as §2, §1

[4] = PZQ + ketoconazole vs PZQ alone
[5] = PZQ + ketoconazole vs PZQ alone, listed as S‐Praziquantel
[6] = single oral 20 mg/kg PZQ alone, n = 9, listed as S‐Praziquantel, 20 mg/kg

Sequence of CYP2C19 (P33261 whole entry): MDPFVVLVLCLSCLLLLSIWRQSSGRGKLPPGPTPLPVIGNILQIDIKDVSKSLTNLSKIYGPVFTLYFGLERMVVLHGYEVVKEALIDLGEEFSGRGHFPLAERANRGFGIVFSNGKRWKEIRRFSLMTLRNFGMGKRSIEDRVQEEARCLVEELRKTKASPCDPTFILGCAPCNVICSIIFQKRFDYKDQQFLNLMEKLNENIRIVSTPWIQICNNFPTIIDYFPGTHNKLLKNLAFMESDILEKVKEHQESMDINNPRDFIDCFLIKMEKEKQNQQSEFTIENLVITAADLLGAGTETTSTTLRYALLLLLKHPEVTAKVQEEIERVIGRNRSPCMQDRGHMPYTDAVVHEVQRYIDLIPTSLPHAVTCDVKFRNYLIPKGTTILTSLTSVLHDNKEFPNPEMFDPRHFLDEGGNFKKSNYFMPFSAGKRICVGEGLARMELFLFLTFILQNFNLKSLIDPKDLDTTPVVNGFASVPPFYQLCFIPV

Predicted total CLH (Simcyp) ([1]; metabolite formation assay): 10.144 mL/min/kg
Predicted total CLH (Simcyp) ([1]; substrate depletion assay): 6.265 mL/min/kg
Clearance/F, treatment mean (SD) ([2]; 20 mg/kg PZQ plus 200 mg ketoconazole, n = 9): 211.5 (74.47) L/h
AUCinf, difference observed % [2, 4]: 68%
AUCt0‐tlast, difference observed % [2, 4]: 56.09%
C max, difference observed % [2, 4]: 107.11%
Clearance/F, difference observed % [2, 4]: −37.81%
Half life, difference observed % [2, 4]: 31.52%
AUCinf, difference observed % [2, 5]: 67.71%
C max, difference observed % [2, 5]: 107.1%
AUC(0-inf) ([2]; oral, 20 mg/kg, 20 mg/kg PZQ plus 200 mg ketoconazole, n = 9, read-out: AUCinf, treatment geo mean): 5960 ng·h/mL
AUC(0-inf) ([2]; oral, 20 mg/kg, 20 mg/kg PZQ plus 200 mg ketoconazole, n = 9, read-out: AUCinf, treatment mean (SD)): 6460 ng·h/mL
AUC ([2]; oral, 20 mg/kg, 20 mg/kg PZQ plus 200 mg ketoconazole, n = 9, read-out: AUCt0‐tlast, treatment geo mean): 4680 ng·h/mL
AUC ([2]; oral, 20 mg/kg, 20 mg/kg PZQ plus 200 mg ketoconazole, n = 9, read-out: AUCt0‐tlast, treatment mean (SD)): 4910 ng·h/mL
CL/F ([2]; oral, 20 mg/kg, 20 mg/kg PZQ plus 200 mg ketoconazole, n = 9, read-out: Clearance/F, treatment geo mean (converted)): 3340 mL/min
CL/F ([2]; oral, 20 mg/kg, 20 mg/kg PZQ plus 200 mg ketoconazole, n = 9, read-out: Clearance/F, treatment mean (SD) (converted)): 3530 mL/min
k el ([2]; oral, 20 mg/kg, 20 mg/kg PZQ plus 200 mg ketoconazole, n = 9, read-out: Elimination rate constant, treatment geo mean (converted)): 6.11e-05 s⁻¹
k el ([2]; oral, 20 mg/kg, 20 mg/kg PZQ plus 200 mg ketoconazole, n = 9, read-out: Elimination rate constant, treatment mean (SD) (converted)): 6.94e-05 s⁻¹
half-life ([2]; oral, 20 mg/kg, 20 mg/kg PZQ plus 200 mg ketoconazole, n = 9, read-out: Half life, treatment geo mean (converted)): 3.17 h
half-life ([2]; oral, 20 mg/kg, 20 mg/kg PZQ plus 200 mg ketoconazole, n = 9, read-out: Half life, treatment mean (SD) (converted)): 3.63 h
Tmax ([2]; oral, 20 mg/kg, 20 mg/kg PZQ plus 200 mg ketoconazole, n = 9, read-out: T max, treatment geo mean): 2.35 h
Tmax ([2]; oral, 20 mg/kg, 20 mg/kg PZQ plus 200 mg ketoconazole, n = 9, read-out: T max, treatment mean (SD)): 2.44 h
Vd/F ([2]; oral, 20 mg/kg, 20 mg/kg PZQ plus 200 mg ketoconazole, n = 9, read-out: V d/F, treatment geo mean): 915 L
Vd/F ([2]; oral, 20 mg/kg, 20 mg/kg PZQ plus 200 mg ketoconazole, n = 9, read-out: V d/F, treatment mean (SD)): 967 L
AUC ([2]; oral, 20 mg/kg, AUC, PZQ alone): 3850 ± 1430 ng·h/mL
AUC ([2]; oral, 20 mg/kg, read-out: AUC from the in vivo pharmacokinetic study): 3300 ng·h/mL
AUC ([2]; oral, AUC, PZQ + KTZ): 6460 ± 3100 ng·h/mL
AUC(0-inf) ([2]; po, 20 mg/kg, single oral 20 mg/kg PZQ alone, n = 9, read-out: AUCinf, reference geo mean): 3610 ng·h/mL
AUC(0-inf) ([2]; po, 20 mg/kg, single oral 20 mg/kg PZQ alone, n = 9, read-out: AUCinf, reference mean (SD)): 3850 ng·h/mL
AUC ([2]; po, 20 mg/kg, single oral 20 mg/kg PZQ alone, n = 9, read-out: AUCt0‐tlast, reference geo mean): 2970 ng·h/mL
AUC ([2]; po, 20 mg/kg, single oral 20 mg/kg PZQ alone, n = 9, read-out: AUCt0‐tlast, reference mean (SD)): 3150 ng·h/mL
CL/F ([2]; po, 20 mg/kg, single oral 20 mg/kg PZQ alone, n = 9, read-out: Clearance/F, reference geo mean (converted)): 5480 mL/min
CL/F ([2]; po, 20 mg/kg, single oral 20 mg/kg PZQ alone, n = 9, read-out: Clearance/F, reference mean (SD) (converted)): 5670 mL/min
k el ([2]; po, 20 mg/kg, single oral 20 mg/kg PZQ alone, n = 9, read-out: Elimination rate constant, reference geo mean (converted)): 8.33e-05 s⁻¹
k el ([2]; po, 20 mg/kg, single oral 20 mg/kg PZQ alone, n = 9, read-out: Elimination rate constant, reference mean (SD) (converted)): 0.0001 s⁻¹
half-life ([2]; po, 20 mg/kg, single oral 20 mg/kg PZQ alone, n = 9, read-out: Half life, reference geo mean (converted)): 2.3 h
half-life ([2]; po, 20 mg/kg, single oral 20 mg/kg PZQ alone, n = 9, read-out: Half life, reference mean (SD) (converted)): 2.76 h
Tmax ([2]; po, 20 mg/kg, single oral 20 mg/kg PZQ alone, n = 9, read-out: T max, reference geo mean): 2.96 h
Tmax ([2]; po, 20 mg/kg, single oral 20 mg/kg PZQ alone, n = 9, read-out: T max, reference mean (SD)): 3 h
Vd/F ([2]; po, 20 mg/kg, single oral 20 mg/kg PZQ alone, n = 9, read-out: V d/F, reference geo mean): 1090 L
Vd/F ([2]; po, 20 mg/kg, single oral 20 mg/kg PZQ alone, n = 9, read-out: V d/F, reference mean (SD)): 1200 L
Clearance/F, reference mean (SD) ([2]; single oral 20 mg/kg PZQ alone, n = 9, 20 mg/kg): 340 ± 97 L/h
C max, reference mean (SD) [2, 6]: 782.9 (171.7) ng/mL
Clearance/F, reference mean (SD) [2, 6]: 340.1 (96.37) L/h
CLuH,int (CYP1A2): 0.83 mL/min/kg and 0.8300 mL/min/kg
CLuH,int (CYP2C19): 2.44 mL/min/kg and 2.440 mL/min/kg
SMILES: O=C(C1CCCCC1)N1CC(=O)N2CCc3ccccc3[C@H]2C1 [S‐PZQ, S‐Praziquantel]
Fraction unbound in plasma (fu) [3]: 0.2
